Assay [1] has as its system Trichoplusia ni. As to the kind of experiment: In-vitro insecticidal efficacy on artificial diet, spinosad (Entrust® SC) with aliphatic acids (Abbott efficacy, Colby synergy factor). It is filed as in vivo. To be noted: Entrust SC 0.034 ppm ([…] spinosad); aliphatic acid (salt) 500 ppm; after 5 days; Abbott-corrected. On the procedure: An artificial diet suitable for Trichoplusia ni (cabbage looper caterpillar) was prepared from a commercially available general purpose lepidoptera artificial diet premix (General Purpose Lepidoptera Diet available from Frontier Scientific Services, Newark, DE) mixed in agar media and then heated to liquify the media. The liquid artificial diet media was then used to fill each well of a 96-well treatment plate with 200 uL of artificial diet media, which was allowed to solidify at room temperature and stored at approximately 4 C.
A 20 uL treatment sample of each treatment formulation was then placed on top of the solidified artificial diet media in each well of the 96 well plates and allowed to dry overnight. The following day, one neonate Trichoplusia ni (cabbage looper) larva (hatched from eggs obtained from the Natural Resource Canada insect research facility in Sault-Ste-Marie, ON, Canada) was added to each well of the plate, and their mortality rate was evaluated after 5 days, to determine the insecticidal efficacy of the Entrust® SC treatment alone, each exemplary unsaturated or saturated aliphatic acid (and salt) alone, and each combination of spinosad (as Entrust® SC) and unsaturated or saturated aliphatic acid (and salt). Each experiment contained 3 replicates.
(§1) While for SF<1, antagonism is present and for SF=1, the efficacy of the compounds is merely additive.

A further assay concerns Fusarium oxysporum. Nature of the assay: Synergistic Growth Inhibition Assay (MIC and FIC index, 96-well, resazurin). In kind it is cell-based. To be noted: Fusarium oxysporum, Compound B alone. An outline of the steps:
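Checkerboard dilutions of pesticidal active plus C6–C10 (or C11/C12) aliphatic acid in 96-well plates; growth scored by resazurin colour change, optionally visual.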

In a further assay the test system is Botrytis cinerea. The description is as above. To be noted: Botrytis cinerea, 48 h, Table 58; Compound B alone; 48 hours incubation; read-out: MIC (B). It is filed as cell-based. Put shortly: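 Checkerboard microdilution of pesticidal active ingredient combined with C6–C10 (or C11/C12) aliphatic acid against Botrytis cinerea, with growth read by resazurin colour change plus visual check. FIC index = sum of each agent's concentration in the inhibiting well divided by its MIC alone; 1 denotes additivity.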

The subject of assay [2] is Trichoplusia ni. As to the kind of experiment: In-planta insecticidal efficacy on sprayed cabbage plants, spinosad (Entrust® SC) with octanoic acid (Abbott efficacy, Colby synergy factor). It is filed as in vivo. To be noted: octanoic acid alone at 100 ppm; Abbott-corrected. As for the experimental part: Green cabbage plants (Brassica oleracea var. capitate, Danish Ballhead cultivar) were grown from seed (available from West Coast Seeds, Delta, BC, Canada) in potting soil for 4-6 weeks in a pest-free indoor growing environment. At between 4-6 weeks of age, each cabbage plant was sprayed with 20 mL of treatment solution using a pressurized CO2 sprayer, and allowed to dry.
as §1

In assay [3] the test system is Trichoplusia ni. As to the kind of experiment: In-planta insecticidal efficacy on sprayed cabbage plants, Pylon® (chlorfenapyr) with unsaturated aliphatic acids (Colby synergy factor). In kind it is in vivo. Conditions: 0.06 mg/mL aliphatic acid (salt). On the procedure: A stock solution was prepared for trans-2-hexenoic acid (available from Sigma-Aldrich, St. […] Green cabbage plants (Brassica oleracea var. capitate, Danish Ballhead cultivar) were grown from seed (available from West Coast Seeds, Delta, BC, Canada) in potting soil for 4 weeks in a pest-free indoor growing environment. At 4 weeks of age, each cabbage plant was sprayed with 10 mL of treatment solution using a hand pump sprayer bottle, and allowed to dry. […] The treated cabbage plants were then placed in nylon isolation tents and kept in an indoor growing environment and the larvae were left to feed on the plants. In one set of cabbage plants, the larvae were left to feed for 48 hours, and then the number of surviving larvae were observed and survival rates (%) were determined. In a second separate set of cabbage plants, the larvae were left to feed for 72 hours, and then the number of surviving larvae were observed and survival rates (%) were determined. Each experiment was repeated at least 3 times. […] In accordance with the Colby Formula, the expected efficacy, E (%), of a combination treatment of compounds A and B in concentrations a and b, respectively, can be determined by evaluating: […] The existence and extent of synergy present in a combination treatment can be determined according to the Colby Formula by evaluating a Synergy Factor, SF=(Observed efficacy)/(Expected efficacy).

Read-outs that look alike come from different tables or passages of the source.

As to `CCCCCCCC(=O)[O-].[K+]` [Octanoic acid, K-salt], the “Observed Efficacy, W (%)” value with Trichoplusia ni [1] was determined as 0%.

With `CCCC=CCC(=O)O` [3-heptanoic acid], the “Observed Efficacy, W (%)” value in the assay on Trichoplusia ni [1] is reported as 4.5%.

Regarding `CCCCCCCC(=O)O` [Octanoic acid, octanoic acid], the MIC (commonly the smallest concentration in the dilution series that meets the test's criterion for growth inhibition) in the assay with Fusarium oxysporum (24 h, Table 7, 24 hour incubation, read-out: MIC(B)) turned out to be 569 mg/L; with Fusarium oxysporum (24 h, Table 9, 24 hour incubation, read-out: MIC (B)), 569 mg/L; in the assay with Fusarium oxysporum (Table 8, read-out: MIC (B)), 1140 mg/L; in the assay on Botrytis cinerea, 625 mg/L. Besides, the “Observed Efficacy, W (%)” value with Trichoplusia ni [2] came to 0%.

Turning to `CC=CC=CC(=O)[O-].[K+]` [2,4-hexadienoic acid, K-salt], the “Observed Efficacy (%)” value in the assay with Trichoplusia ni [3] (after 48 hours) amounted to 13%; in the assay on Trichoplusia ni [3] (after 72 hours) it was 0%.

Regarding `C/C=C/C=C/C(=O)[O-].[K+]` [(2E,4E)-2,4 hexadienoic acid, K-salt], the “Observed Efficacy, W (%)” value in the assay on Trichoplusia ni [1] was found to be 9.1%.

For the origin of these results see patent US11839212B2, “Synergistic pesticidal compositions and methods for delivery of insecticidal active ingredients” (0903608 B.C. Ltd., priority 2018, dated 2023).
